Laboratory results published in ChEMBL document CHEMBL1140419, “Synthesis of doxorubicin-peptide conjugate with multidrug resistant tumor cell killing activity” (Bioorg Med Chem Lett, 2005).

Experiments:
[1] = tested on: MCF7; experiment: Tumor killing activity in MCF7 breast cancer cells by MTT assay; assay type: functional, cell-based; details: Homo sapiens
[2] = tested on: MCF7; experiment: Cytotoxicity on drug-sensitive MCF7 cells; assay type: functional, cell-based; details: Homo sapiens
[3] = tested on: NCI/ADR-RES; experiment: Tumor killing activity in MCF7/ADR drug-resistant cell line by MTT assay; assay type: functional, cell-based; details: Homo sapiens
[4] = tested on: AT3B-1; experiment: Tumor killing activity in AT3B1 drug-resistant cell line by MTT assay; assay type: functional, cell-based; details: Rattus norvegicus
[5] = tested on: MCF7; experiment: Percentage intracellular concentration in MCF7 breast cancer cells; assay type: ADME, cell-based; details: human
[6] = tested on: NCI/ADR-RES; experiment: Percentage intracellular concentration in MCF7/ADR drug-resistant cell line; assay type: ADME, cell-based; details: human
[7] = tested on: NCI/ADR-RES; experiment: Tumor killing activity in MCF7/ADR drug-resistant cell line with 10 uM verapamil (P-gp inhibitor); assay type: functional, cell-based; details: Homo sapiens
[8] = tested on: AT3B-1; experiment: Percentage intracellular concentration in AT3B1 drug-resistant cell line; assay type: ADME, cell-based, Homo sapiens
[9] = tested on: AT3B-1; experiment: Inhibition of tumor killing activity in AT3B1 drug-resistant cell line with 10 uM verapamil (P-gp inhibitor); assay type: functional, cell-based; details: Rattus norvegicus

Compound	IC50 [1]	Activity [2]	IC50 [3]	IC50 [4]	permeability [5]	permeability [6]	IC50 [7]	permeability [8]	IC50 [9]
COc1cccc2c1C(=O)c1c(O)c3c(c(O)c1C2=O)C[C@@](O)(C(=O)CO)C[C@@H]3O[C@H]1C[C@H](NC(=O)C2CCC(CN3C(=O)CC(SC[C@H](N)C(=O)NCC(=O)NCC(=O)NCC(=O)N[C@@H](Cc4ccc(O)cc4)C(=O)NCC(=O)N[C@@H](CCCN=C(N)N)C(=O)N[C@@H](CCCCN)C(=O)N[C@@H](CCCCN)C(=O)N[C@@H](CCCN=C(N)N)C(=O)N[C@@H](CCCN=C(N)N)C(=O)N[C@@H](CCC(N)=O)C(=O)N[C@@H](CCCN=C(N)N)C(=O)N[C@@H](CCCN=C(N)N)C(=O)N[C@@H](CCCN=C(N)N)C(=O)O)C3=O)CC2)[C@H](O)[C@H](C)O1 (some centres not stated)	0.28 µM	Dose-dependent effect	5.8 µM	23.4 µM	84.6%	58.4%	5.2 µM	49.3%	23.8 µM
COc1cccc2c1C(=O)c1c(O)c3c(c(O)c1C2=O)C[C@@](O)(C(=O)CO)C[C@@H]3O[C@H]1C[C@H](N)[C@H](O)[C@H](C)O1 [DOXORUBICIN]		Dose-dependent effect	45.2 µM	168 µM	92.3%	4.5%	6.7 µM	7.9%	42.4 µM
